# Columns and labels:
# [1] = tested on: hind limb muscles of adult Sprague-Dawley rats; experiment: In vivo biocompatibility and degradation, macroscopic and IHC, incision closure
# Excerpt: Small surgical incisions (0.2 cm in depth, 1 cm in length) were made in both hind limb muscles of adult Sprague-Dawley rats (n=4). One incision was closed by 1 drop of various cyanoacrylate formulations dispensed through a surgical syringe needle (25 G) and the other was closed by absorbable suture (VICRYL, Ethicon) with and without injection of equivalent volumes of PEG included in cyanoacrylate formulations as controls. In order to ensure proper identification of the injury sites, a single non-absorb-able suture was placed adjacent to each repaired incision site.
# At 7 days, 4 weeks, and 12 weeks post-surgery, tissue explants containing the repaired incision sites and surrounding muscle tissue were retrieved. The explants were photographed to document the macroscopic tissue response to the various cyanoacrylate formulations and suture controls (FIGS. 3A-3H (7 days), 4A-4H (4 weeks), and 5A-5H (12 weeks)). Identification of specific cells types associated with wound healing and inflammation was performed by histological sectioning and immunohistochemical (IHC) staining. Tissue explants were embedded in Optimal cutting temperature (OCT) compound and sectioned perpendicular to the surface of the repaired muscle tissue. Sections ([…] thick) were transferred to glass microscope slides, fixed with methanol, permeabilized with 0.025% Triton in PBS solution, and stained with primary antibodies directed against vimentin (fibroblasts) and rat macrophages, and Alexa-594 conjugated secondary antibodies. DAPI mounting media was used to counterstain all cellular nuclei. Samples were imaged by fluorescence microscopy (FIGS. 6A-6P, 7A-7P, 8A-8P). Specific cell types are identified in red, sutures and various cyanoacrylate adhesives are shown in green, and cellular nuclei are shown in blue. […]
# [2] = tested on: Human dermal fibroblast (HDF) cells; experiment: In vitro cytotoxicity of adhesive-conditioned media (MTT assay); assay type: cell-based; conditions: ACM collected at 2 days; HDF cultured 2 days; FIG. 9
# Protocol: 2 μl of various CA formulations were applied on thin collagen films in 12 well plates and allowed to polymerize completely overnight at room temperature. One ml of […] (DMEM) including 10% Serum and 1% Penicillin/Streptomycin was added into each well and incubated at 37° C. in a humidified CO2 incubator to simulate adhesive degradation. Media samples were collected at 2, 7, and 14 days and these adhesive-conditioned media (ACM) were stored at −20° C. until use. Human dermal fibroblast (HDF) cells were seeded in new 12-well culture plates at a density of 8×10^4 cells/well and cultured for 24 hours to allow cell attachment. The media was replaced with the stored ACM and cultured for 2 days at 37° C. to evaluate the in vitro cytotoxicity of the various CA derivatives. Cell cytotoxicity by the degraded CA adhesives in ACM was evaluated by MTT assay. The principle of this assay is the addition of a dye which is degraded by enzymes present in living cells, resulting in the formation of a colored product. The product concentration, which is generally directly proportional to the number of viable cells, is assayed by spectrophotometry.
# Escherichia coli = experiment: Antibacterial activity by agar diffusion method; assay type: cell-based; parameters: key: c: Inhibition of growth not observed; conditions: 10 mg sample
# Protocol: Antibacterial activity of polymyxin B-loaded PBCA nanoparticles was measured indirectly by the agar diffusion method. 30 ml of nutrient agar was added into each of four culture plates (90 mm diameter, 15 mm high). After solidifying, a cylindrical hole (13 mm in diameter) was made in the center of the plate and the contents were removed. 10 mg of polymyxin B, PBCA nanoparticles, and two polymyxin B-loaded PBCA nanoparticles (Poly BIPBCA-1 and 2) were added into a hole of each plate, respectively and a few drops of molten agar were added to fix the samples. The plate were inoculated with Escherichia coli and incubated at 37° C. for 24 hours and the zone of inhibition was determined (FIGS. 13A-13D).
# To evaluate the duration of antibacterial activity of each sample, the content of each hole was removed after 24 hours of incubation and transferred to a hole of a freshly prepared plate, incubated again for 24 hours and the zone of inhibition measured. This procedure was continuously repeated until the inhibition of growth was no longer observed.
# [3] = In vitro accelerated degradation study of cured adhesive films; assay type: physicochemical; conditions: thin films in 0.05N NaOH, 37° C., 3, 7, 14 and 21 days; FIG. 1
# Protocol: In vitro accelerated degradation studies have been performed to evaluate the degradation rate of various cyanoacrylate adhesives formulated with PEG and without PEG. 20 μl of cyanoacrylate (CA) derivatives and CA derivatives/PEG (MW=600) formulations were spread as a thin layer on the glass microscope slides and allowed to cure overnight at room temperature. […] The films were collected at 3, 7, 14, and 21 days and washed with distilled water two times. The washed films were freeze-dried and weighed (W1) (n=3). […] 2. Tissue Bond Strength Study
# Human dermal fibroblasts = experiment: Cell adhesion to polymerized cyanoacrylates (live/dead staining); assay type: cell-based; conditions: 48 hours culture; FIG. 10
# Protocol: 2 μl aliquots of various cyanoacrylate formulations with and without PEG were applied to thin collagen films in 24 well plates and allowed to cure overnight at room temperature. Human dermal fibroblasts were seeded on the collagen film/polymerized adhesive surfaces at 8×10^4 cells/well and cultured for 48 hours. The cells were stained with fluorescein diacetate and propidium iodide to visualize live (green) and dead (red) cells respectively. FIGS. 10A (OCA+MCA), 10B (OCA+MCA/PEG), 10E (MCA), and 10F (MCA/PEG) are phase contrast images (black and white) showing the interface between the cyanoacrylate adhesives and the surrounding collagen films and corresponding fluorescent images FIGS. 10C (OCA+MCA), 10D (OCA+MCA/PEG), 10G (MCA), and 10H (MCA/PEG) showing the location of adherent cells.
# [4] = 4 weeks post-surgery, one value per rat
# [5] = 7 days post-surgery, one value per rat
# [6] = 7 days post-surgery, one value per rat (Rat No. 1-4), star grades not defined
# [7] = Table IV, 4 weeks post-surgery (12 weeks), one value per rat
Compound,"Vessel formation [1, 4]",macroscopic inflammation and swelling of tissue explants ([1]; 7 days post-surgery),"Vessel formation [1, 5]","Degree of inflammation [1, 6]","Degree of inflammation [1, 7]","Vessel formation [1, 7]",cytotoxicity of adhesive-conditioned media (% cell viability) [2],"Inhibition zone: Diameter (mm) (Escherichia coli; day 1, includes original 13 mm sample size)","Inhibition zone: Diameter (mm) (Escherichia coli; day 2 (sample moved to fresh plate every 24 hours), includes 13 mm sample size)","Inhibition zone: Diameter (mm) (Escherichia coli; day 3, includes 13 mm sample size)","Inhibition zone: Diameter (mm) (Escherichia coli; day 4, includes 13 mm sample size)","Inhibition zone: Diameter (mm) (Escherichia coli; day 5, includes 13 mm sample size)",Inhibition zone: Diameter (mm) (Escherichia coli; day 6),% degradation in vitro [3],"Degree of inflammation [1, 4]","No. of macrophages ([1]; Table IV, 4 weeks post-surgery (12 weeks), one value per rat, IHC)",fibroblast adhesion to polymerized adhesive surface (Human dermal fibroblasts)
"C=C(C#N)C(=O)OCCCCCCCC [OCA, octylcyanoacrylate]",no,mild inflammation and swelling,no,no,no,no,not cytotoxic except for the ACM from OCA,,,,,,,,,,
Polymyxin B,,,,,,,,36,38.3,28,25.1,22,c,,,,
methoxyisopropylcyanoacrylate [MCA],no,,no,no,no,no,,,,,,,,significantly increased degradation,no,0,readily adhered in large numbers
